For data set [1] the following is noted: prior-art tadalafil of U.S. Pat. No. 6,821,975; cited from earlier work.
Data set [2] is described as follows: Particle size of tadalafil by Malvern laser diffraction (Mastersizer S). Format: physicochemical. The source says:
Measurement and characterization of particle size distributions is known in the art. It is possible to compare samples of particulate tadalafil on the basis of individual points on a cumulative particle size distribution curve. The measurements are represented as d(0.X)=Y (where X and Y are Arabic numerals), each “d” describing an individual point on a cumulative PSD curve. The number “X” represents the percentage (number, volume, or weight) of particles in the population having a nominal size up to and including “Y”. Thus, d(0.9)=250μ is characteristic of a PSD in which 90% (number, volume, or weight) of the particles in a population have a nominal size of about 250μ or less (at least some particles having a nominal dimension of 250μ) and so forth. When PSD is determined by the well-know laser-diffraction method described herein, the d(0.X) measurement depicts a volume average. The particle size of tadalafil described herein was measured by Malvern Laser Diffraction using a Mastersizer S instrument. The measuring instrument was equipped with a small cell dispersion unit MS1 with a digital dispersion unit controller. The measurement was performed by using range lens 300RF (working range 0.05-900 mcm), beam length: 2.40 mm, presentation 3$$D (Fraunhofer), number of sweeps 4000, and speed rate 2300±10 rpm. The dilution medium was 0.1% w/v Span 80 in a saturated solution of tadalafil in cyclohexane. The measurement began after 10 seconds of recirculation, after the powder was added directly into the measurement cell filled with the dilution medium. According to the accepted rules of Good Manufacturing Procedures, a sample of tadalafil was measured after a successful blank measurement (% obscuration NMT 0.1%) was performed.

The values that follow come from patent US7417044B2, “Tadalafil having a large particle size and a process for preparation thereof” (Teva Pharmaceutical Industries Ltd., priority 2005, dated 2008).

SMILES strings stand for the structures. Where “and” joins values, the source holds several entries; their conditions need not be identical. Equal values may be shown once. Bounds are passed on as bounds.

As for `CN1CC(=O)N2[C@H](c3ccc4c(c3)OCO4)c3[nH]c4ccccc4c3C[C@@H]2C1=O` [tadalafil, (6R-trans)-6-(1,3-benzodioxol-5-yl)-2,3,6,7,12,12a-hexahydro-2-methyl-pyrazino[1′,2′:1,6]pyrido[3,4-b]indole-1,4-dione], the “particle size of 90% of the particles” value in data set [1] is recorded as “less than 40 microns”. For the same compound, the “particle size, d(0.9)” value in data set [2] (Example 1, final dry material after industrial-scale crystallization from acetone/water with heating/cooling cycles) was 60-500 microns; in data set [2] (Example 2, final dry material after crystallization from acetone/water with heating/cooling cycles) it was greater than 60 microns; in data set [2] (Example 3, after milling with micronizer, 50 mm, 4.0 bar feed air and 3.0 bar milling air), “about 228.7 microns”; in data set [2] (Example 4, after milling with micronizer, 50 mm, 2.0 bar feed air and 1.0 bar milling air) it was “about 105.8 microns”; in data set [2] (Example 5, after milling with Pin-Mill, 9.6 Kg/hr feed rate and 12,000 rpm milling speed), “about 52.4 microns”; in data set [2] (Example 6, after milling with Pin-Mill, 9.6 Kg/hr feed rate and 4500 rpm milling speed) it was “about 202.7 microns”. In data set [2] (starting sample before milling (Examples 3-6)), the “particle size, d(0.9)” value was 584 microns and 538.6 microns and 553.5 microns.
